Assay results as given in PubChem BioAssay (NCI).
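Step 1: Grow cells in 96-well plates. Step 2: Expose to compound for 48 hours at 5 concentrations. Step 3: Interpolate endpoints linearly; if unreached, use highest concentration. GI50 marks 50% less growth. TGI: total growth inhibition.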

Key:
Experiment in all cases: inhibition of tumour cell growth, NCI panel, 48 h
A549 NSCLC = test system: A549 NSCLC
HCT-116 colon = test system: HCT-116 colon
HL-60(TB) leukemia = test system: HL-60(TB) leukemia
HOP-92 NSCLC = test system: HOP-92 NSCLC
HS 578T breast = test system: HS 578T breast
KM12 colon = test system: KM12 colon
NCI-H226 lung = test system: NCI-H226 lung
NCI-H23 lung = test system: NCI-H23 lung
NCI/ADR-RES ovarian = test system: NCI/ADR-RES ovarian
OVCAR-8 ovarian = test system: OVCAR-8 ovarian
PC-3 prostate = test system: PC-3 prostate
SF-295 CNS = test system: SF-295 CNS
SF-539 CNS = test system: SF-539 CNS
SK-MEL-28 melanoma = test system: SK-MEL-28 melanoma
U251 CNS = test system: U251 CNS

SMILES | TGI (A549 NSCLC) | TGI (HCT-116 colon) | TGI (HL-60(TB) leukemia) | TGI (HOP-92 NSCLC) | TGI (HS 578T breast) | TGI (KM12 colon) | TGI (NCI-H226 lung) | TGI (NCI-H23 lung) | TGI (NCI/ADR-RES ovarian) | TGI (OVCAR-8 ovarian) | TGI (PC-3 prostate) | TGI (SF-295 CNS) | TGI (SF-539 CNS) | TGI (SK-MEL-28 melanoma) | TGI (U251 CNS) | GI50 (A549 NSCLC) | GI50 (HS 578T breast) | GI50 (OVCAR-8 ovarian) | GI50 (SF-295 CNS)
C/C(=C\[Si](C)(C)c1ccco1)C(C)(O)[C@H](C)O (stereo not given in full) | > 100 µM | > 100 µM | > 100 µM | > 100 µM | > 100 µM | > 100 µM | > 100 µM | 86.4 µM | > 100 µM | > 100 µM | > 100 µM | > 100 µM | > 100 µM | > 100 µM | > 100 µM | – | – | – | –
C=C(C)[C@@H]1CC[C@]2(C(=O)O)CC[C@]3(C)[C@H](CC[C@@H]4[C@@]5(C)C/C(=C/c6ccco6)C(=O)C(C)(C)[C@@H]5CC[C@]43C)[C@@H]12 | > 100 µM | – | – | – | > 100 µM | – | – | – | – | > 100 µM | – | > 100 µM | – | – | – | 2.12 µM | 6.66 µM | 3.5 µM | 3.24 µM
CC(C)CC(N)C(=O)NC(CNC(CCC(N)=O)C(=O)NC(CC(C)C)C(=O)NC(CC(C)C)C(=O)O)Cc1ccc2ccccc2c1 (stereo not given) | > 10 µM | > 10 µM | > 10 µM | > 10 µM | > 10 µM | > 10 µM | > 10 µM | > 10 µM | > 10 µM | > 10 µM | > 10 µM | > 10 µM | > 10 µM | > 10 µM | > 10 µM | – | – | – | –
CN(C)CCC(=O)[C@@]1(O)CC[C@H]2[C@@H]3CC=C4C[C@@H](O)CC[C@]4(C)[C@H]3CC[C@@]21C | > 86.8 µM | 32.6 µM | 37.7 µM | 39.7 µM | 51.1 µM | 45.3 µM | > 100 µM | 56.1 µM | 72.1 µM | 40 µM | 26.2 µM | > 73.9 µM | 8.61 µM | 33.2 µM | 31 µM | – | – | – | –
CCCCCCCCCCCCCCCCCCN(C)CC(COC)OP(=O)([O-])OCC[N+](C)(C)C (stereo not given) | 7.69 µM | 11.8 µM | 8.53 µM | 3.33 µM | 17.8 µM | 1.62 µM | 13.5 µM | 11.7 µM | 33.3 µM | 14.2 µM | 1.47 µM | 4.71 µM | 13 µM | 31.2 µM | 2.44 µM | – | – | – | –
CC(=O)NC1C(OCc2ccccc2)OC(CO)C(O)C1OCC(=O)NC(C(=O)NC(CCC(=O)NCCCCCC(=O)Nc1ccc2c(c1)CN1C(=O)c3ccccc3C1=N2)C(N)=O)C(C)C (stereo not given) | > 100 µM | > 100 µM | > 100 µM | > 100 µM | 51 µM | 48.7 µM | – | > 100 µM | > 100 µM | 79.5 µM | 70.8 µM | 60.8 µM | 37.7 µM | 39 µM | 39.2 µM | – | – | – | –
C/C=C\C1OC1(C)c1cc(=O)c2c(C)cc3c(c2o1)C(=O)c1c(O)c(C2CC(C)(N(C)C)C(OC(C)=O)C(C)O2)cc(C2CC(N(C)C)C(O)C(C)O2)c1C3=O (stereo not given) | 0.482 µM | 0.0429 µM | – | 0.0251 µM | 0.0223 µM | 0.0109 µM | 0.018 µM | 0.00871 µM | – | 0.0177 µM | 0.0131 µM | 0.00762 µM | 0.0121 µM | – | 0.0394 µM | – | – | – | –
CC(C)N(CC(=O)O)CC(=O)O | > 100 µM | > 100 µM | > 100 µM | > 100 µM | > 100 µM | > 100 µM | > 100 µM | > 100 µM | > 100 µM | > 100 µM | > 100 µM | > 100 µM | > 100 µM | > 100 µM | > 100 µM | – | – | – | –
Nc1ccc(Oc2ccc(C34CC5C6CC7(c8ccc(Oc9ccc(N)cc9)cc8)CC5C(C3)C(C7)C6C4)cc2)cc1 | > 100 µM | > 100 µM | > 100 µM | > 100 µM | > 100 µM | > 100 µM | > 100 µM | > 100 µM | > 100 µM | > 100 µM | > 100 µM | > 100 µM | – | > 100 µM | > 100 µM | – | – | – | –
O=C(c1ccccc1)c1ccc(N2C(=O)/C(=C/c3ccccc3S)N=C2c2ccccc2)c(N2C(=O)/C(=C/c3ccccc3S)N=C2c2ccccc2)c1 | > 100 µM | > 100 µM | > 100 µM | > 100 µM | > 100 µM | > 100 µM | – | – | > 100 µM | 88.6 µM | > 100 µM | > 100 µM | 40.3 µM | > 100 µM | > 100 µM | – | – | – | –
O=C1c2cc3c(cc2[C@@H]2C(O)[C@H]4O[C@H]4C4CCN1C42)OCO3 (stereo not given in full) | > 37.5 µM | > 37.5 µM | > 37.5 µM | > 37.5 µM | – | > 37.5 µM | > 37.5 µM | – | – | > 37.5 µM | – | > 37.5 µM | > 37.5 µM | > 37.5 µM | – | – | – | – | –
Cc1nn(CNc2ccc(F)c(Cl)c2)c(=S)n1/N=C/c1ccc(-c2ccc(Cl)cc2Cl)o1 | – | 30.7 µM | 16.9 µM | – | 52.9 µM | 55.7 µM | 46.8 µM | 38.8 µM | 44.5 µM | 48.5 µM | 30.9 µM | 33.7 µM | 34.8 µM | 44.3 µM | 29 µM | – | – | – | –
C=C1N(C)c2ccc(S(=O)(=O)c3ccc4c(c3)C(C)(C)C(=C)N4C)cc2C1(C)C | > 100 µM | > 100 µM | > 100 µM | 41.1 µM | 89.2 µM | > 100 µM | > 100 µM | > 100 µM | > 100 µM | > 100 µM | > 100 µM | > 100 µM | > 100 µM | > 100 µM | > 100 µM | – | – | – | –
O=P1(Oc2ccc(Cl)cc2Cl)Oc2cc3ccccc3cc2O1 | > 100 µM | > 100 µM | 50.8 µM | > 100 µM | – | > 100 µM | > 100 µM | > 100 µM | > 100 µM | > 100 µM | – | > 100 µM | > 100 µM | > 100 µM | > 100 µM | – | – | – | –
Nc1ccc(-c2nc3ccccc3s2)cc1CO | > 100 µM | > 100 µM | > 100 µM | > 100 µM | > 100 µM | > 100 µM | – | > 100 µM | > 100 µM | > 100 µM | > 100 µM | > 100 µM | – | > 100 µM | > 100 µM | – | – | – | –
